Experimental data as given in the supplement of paper PMC11061612.

Tests used:
SN-38 = compound: CCc1c2c(nc3ccc(O)cc13)-c1cc3c(c(=O)n1C2)COC(=O)[C@]3(O)CC [SN-38]; settings: max 0.3 µM
Summary of the method: (§1)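 In 1536-well plates, cancer cell lines in 7.5 μl DMEM/F12 or RPMI with 10% FBS spent 24 hours at 37°C and 5% CO2 and were then dosed for 72 hours with final DMSO typically 0.2%. Viability was read by CellTiter-Glo 2.0 luminescence and scaled between blank-well and DMSO-well means. The single-agent IC50 was fitted from dose responses using a logistic curve in a non-linear mixed effects model, and that logistic curve had two parameters.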

AZD8186 = compound: C[C@@H](Nc1cc(F)cc(F)c1)c1cc(C(=O)N(C)C)cc2c(=O)cc(N3CCOCC3)oc12 [AZD8186]; settings: max 10 µM
Summary of the method: as §1

AZD1775 = compound: C=CCn1c(=O)c2cnc(Nc3ccc(N4CCN(C)CC4)cc3)nc2n1-c1cccc(C(C)(C)O)n1 [AZD1775]; settings: max 3 µM
Summary of the method: as §1

AZD5991 = compound: Cc1c2c(nn1C)CSCc1cc(n(C)n1)CSc1cc(c3ccccc3c1)OCCCc1c(C(=O)O)n(C)c3c-2c(Cl)ccc13 [AZD5991]; settings: max 1 µM
Summary of the method: as §1

AZD7648 = compound: Cc1cc2ncnn2cc1Nc1ncc2c(n1)n(C1CCOCC1)c(=O)n2C [AZD7648]; settings: max 10 µM
Summary of the method: as §1

Prexasertib = compound: COc1cccc(OCCCN)c1-c1cc(Nc2cnc(C#N)cn2)n[nH]1 [Prexasertib]; settings: max 1 µM
Summary of the method: as §1

AZD5153 = compound: COc1nnc2ccc(N3CCC(c4ccc(OCCN5CCN(C)C(=O)[C@H]5C)cc4)CC3)nn12 [AZD5153]; settings: max 1 µM
Summary of the method: as §1

Olaparib = compound: O=C(c1cc(Cc2n[nH]c(=O)c3ccccc23)ccc1F)N1CCN(C(=O)C2CC2)CC1 [Olaparib]; settings: max 10 µM
Summary of the method: as §1

Carboplatin = compound: C1CC(C1)(C(=O)[O-])C(=O)[O-].N.N.[Pt+2] [Carboplatin]; settings: max 10 µM
Summary of the method: as §1

AZD6738 = compound: C[C@@H]1COCCN1C2=NC(=NC(=C2)C3(CC3)[S@](=N)(=O)C)C4=C5C=CNC5=NC=C4 [AZD6738]; settings: max 10 µM
Summary of the method: as §1

AZD1390 = compound: CC(C)n1c(=O)n(C)c2cnc3cc(F)c(-c4ccc(OCCCN5CCCCC5)nc4)cc3c21 [AZD1390]; settings: max 0.3 µM
Summary of the method: as §1

Palbociclib = compound: CC(=O)c1c(C)c2cnc(Nc3ccc(N4CCNCC4)cn3)nc2n(C2CCCC2)c1=O [Palbociclib]; settings: max 10 µM
Summary of the method: as §1

Alisertib = compound: COc1cc(Nc2ncc3c(n2)-c2ccc(Cl)cc2C(c2c(F)cccc2OC)=NC3)ccc1C(=O)O [Alisertib]; settings: max 10 µM
Summary of the method: as §1

Doxorubicin = compound: COc1cccc2c1C(=O)c1c(O)c3c(c(O)c1C2=O)C[C@@](O)(C(=O)CO)C[C@@H]3O[C@H]1C[C@H](N)[C@H](O)[C@H](C)O1 [Doxorubicin]; settings: max 1 µM
Summary of the method: as §1

Paclitaxel = compound: CC(=O)O[C@H]1C(=O)[C@@]2(C)[C@H]([C@H](OC(=O)c3ccccc3)[C@]3(O)C[C@H](OC(=O)[C@H](O)[C@@H](NC(=O)c4ccccc4)c4ccccc4)C(C)=C1C3(C)C)[C@]1(OC(C)=O)CO[C@@H]1C[C@@H]2O [Paclitaxel]; settings: max 3 µM
Summary of the method: as §1

AZD0156 = compound: CN(C)CCCOc1ccc(-c2ccc3ncc4c(c3c2)n(C2CCOCC2)c(=O)n4C)cn1 [AZD0156]; settings: max 3 µM
Summary of the method: as §1

AZD4320 = compound: CN(CC[C@H](CSC1=CC=CC=C1)NC2=C(C=C(C=C2)S(=O)(=O)NC(=O)C3=CC=C(C=C3)N4CCC(CC4)[C@H](C5=CC=CC=C5C6=CC=C(C=C6)Cl)O)S(=O)(=O)C(F)(F)F)CCO [AZD4320]; settings: max 1 µM
Summary of the method: as §1

Etoposide = compound: COc1cc([C@@H]2c3cc4c(cc3[C@@H](O[C@@H]3O[C@@H]5CO[C@@H](C)O[C@H]5[C@H](O)[C@H]3O)[C@H]3COC(=O)[C@H]23)OCO4)cc(OC)c1O [Etoposide]; settings: max 10 µM
Summary of the method: as §1

SRA737 = compound: N#Cc1cnc(Nc2cc(NC[C@H]3CNCCO3)c(C(F)(F)F)cn2)cn1 [SRA737]; settings: max 10 µM
Summary of the method: as §1

Dasatinib = compound: CC1=C(C(=CC=C1)Cl)NC(=O)C2=CN=C(S2)NC3=CC(=NC(=N3)C)N4CCN(CC4)CCO [Dasatinib]; settings: max 2 µM
Summary of the method: as §1

Taselisib = compound: Cc1nc(-c2cn3c(n2)-c2ccc(-c4cnn(C(C)(C)C(N)=O)c4)cc2OCC3)n(C(C)C)n1 [Taselisib]; settings: max 10 µM
Summary of the method: as §1

5-Fluorouracil = compound: O=c1[nH]cc(F)c(=O)[nH]1 [5-Fluorouracil]; settings: max 20 µM
Summary of the method: as §1

Crizotinib = compound: C[C@@H](Oc1cc(-c2cnn(C3CCNCC3)c2)cnc1N)c1c(Cl)ccc(F)c1Cl [Crizotinib]; settings: max 10 µM
Summary of the method: as §1

MK-2206 = compound: NC1(c2ccc(-c3nc4ccn5c(=O)[nH]nc5c4cc3-c3ccccc3)cc2)CCC1 [MK-2206]; settings: max 10 µM
Summary of the method: as §1

Gemcitabine = compound: Nc1ccn([C@@H]2O[C@H](CO)[C@@H](O)C2(F)F)c(=O)n1 [Gemcitabine]; settings: max 0.3 µM
Summary of the method: as §1

Venetoclax = compound: CC1(C)CCC(CN2CCN(c3ccc(C(=O)NS(=O)(=O)c4ccc(NCC5CCOCC5)c([N+](=O)[O-])c4)c(Oc4cnc5[nH]ccc5c4)c3)CC2)=C(c2ccc(Cl)cc2)C1 [Venetoclax]; settings: max 1 µM
Summary of the method: as §1

[1] = compound: O=C(Nc1ccc2[nH]nc(-c3ccncc3)c2c1)[C@@H]1CCN(CC(=O)N2CCN(c3ccc(-c4ncccn4)cc3)CC2)C1; settings: max 5 µM
Summary of the method: as §1

AZD5363 = compound: C1CN(CCC1(C(=O)N[C@@H](CCO)C2=CC=C(C=C2)Cl)N)C3=NC=NC4=C3C=CN4 [AZD5363]; settings: max 10 µM
Summary of the method: as §1

Savolitinib = compound: C[C@@H](c1ccc2nccn2c1)n1nnc2ncc(-c3cnn(C)c3)nc21 [Savolitinib]; settings: max 1 µM
Summary of the method: as §1

Lapatinib = compound: CS(=O)(=O)CCNCc1ccc(-c2ccc3ncnc(Nc4ccc(OCc5cccc(F)c5)c(Cl)c4)c3c2)o1 [Lapatinib]; settings: max 10 µM
Summary of the method: as §1

Selumetinib = compound: Cn1cnc2c(F)c(Nc3ccc(Br)cc3Cl)c(C(=O)NOCCO)cc21 [Selumetinib]; settings: max 10 µM
Summary of the method: as §1

Gefitinib = compound: COc1cc2ncnc(Nc3ccc(F)c(Cl)c3)c2cc1OCCCN1CCOCC1 [Gefitinib]; settings: max 10 µM
Summary of the method: as §1

Trametinib = compound: CC(=O)Nc1cccc(-n2c(=O)n(C3CC3)c(=O)c3c(Nc4ccc(I)cc4F)n(C)c(=O)c(C)c32)c1 [Trametinib]; settings: max 1 µM
Summary of the method: as §1

SG3199 = compound: CC1=CN2[C@@H](C1)C=NC3=CC(=C(C=C3C2=O)OC)OCCCCCOC4=C(C=C5C(=C4)N=C[C@@H]6CC(=CN6C5=O)C)OC [SG3199]; settings: max 0.001 µM
Summary of the method: as §1

AZD2811 = compound: CCN(CCO)CCCOc1ccc2c(Nc3cc(CC(=O)Nc4cccc(F)c4)[nH]n3)ncnc2c1 [AZD2811]; settings: max 1 µM
Summary of the method: as §1

## WM-115 (Melanoma)
SN-38
  IC50, cell viability 72 h: > 300 nM
AZD8186
  IC50, cell viability 72 h: 3.41 µM
AZD1775
  IC50, cell viability 72 h: > 3000 nM
AZD5991
  IC50, cell viability 72 h: > 1000 nM
AZD7648
  IC50, cell viability 72 h: > 10 µM
Prexasertib
  IC50, cell viability 72 h: 486 nM
AZD5153
  IC50, cell viability 72 h: > 1000 nM
Olaparib
  IC50, cell viability 72 h: > 10 µM
Carboplatin
  IC50, cell viability 72 h: > 10 µM
AZD6738
  IC50, cell viability 72 h: > 10 µM
AZD1390
  IC50, cell viability 72 h: > 300 nM
Palbociclib
  IC50, cell viability 72 h: > 10 µM
Alisertib
  IC50, cell viability 72 h: > 10 µM
Doxorubicin
  IC50, cell viability 72 h: 633 nM
Paclitaxel
  IC50, cell viability 72 h: 387 nM
AZD0156
  IC50, cell viability 72 h: > 3000 nM
AZD4320
  IC50, cell viability 72 h: > 1000 nM
Etoposide
  IC50, cell viability 72 h: > 10 µM
SRA737
  IC50, cell viability 72 h: > 10 µM
Dasatinib
  IC50, cell viability 72 h: > 2000 nM
Taselisib
  IC50, cell viability 72 h: 7.27 µM
5-Fluorouracil
  IC50, cell viability 72 h: > 20 µM
Crizotinib
  IC50, cell viability 72 h: > 10 µM
MK-2206
  IC50, cell viability 72 h: > 10 µM
Gemcitabine
  IC50, cell viability 72 h: > 300 nM
Venetoclax
  IC50, cell viability 72 h: > 1000 nM
[1]
  IC50, cell viability 72 h: > 5 µM
AZD5363
  IC50, cell viability 72 h: > 10 µM
Savolitinib
  IC50, cell viability 72 h: > 1000 nM
Lapatinib
  IC50, cell viability 72 h: > 10 µM
Selumetinib
  IC50, cell viability 72 h: > 10 µM
Gefitinib
  IC50, cell viability 72 h: > 10 µM
Trametinib
  IC50, cell viability 72 h: 182 nM
SG3199
  IC50, cell viability 72 h: > 1 nM
AZD2811
  IC50, cell viability 72 h: > 1000 nM
